Assay results as given in the supplement of paper PMC12076712.
± gives the standard deviation of the averaged measurements.

How the values were obtained:
Assay in all cases: pIC50, kinobeads binding competition
Conditions in all cases: cell material: Jurkat lysate
UniProt P52564 = biological target: T1, UniProt P52564
T1 sequence (whole entry): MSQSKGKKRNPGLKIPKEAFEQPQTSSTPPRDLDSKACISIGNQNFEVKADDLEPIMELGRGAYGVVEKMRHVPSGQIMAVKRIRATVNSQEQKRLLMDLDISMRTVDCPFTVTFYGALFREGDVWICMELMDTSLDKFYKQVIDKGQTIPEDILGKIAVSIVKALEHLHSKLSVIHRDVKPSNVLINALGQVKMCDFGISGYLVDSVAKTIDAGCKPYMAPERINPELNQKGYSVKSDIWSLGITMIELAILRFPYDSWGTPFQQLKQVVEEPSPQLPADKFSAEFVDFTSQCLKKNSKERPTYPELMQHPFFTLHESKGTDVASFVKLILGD

EPHB6 = biological target: T2, EPHB6 (UniProt O15197)
T2 sequence (whole entry): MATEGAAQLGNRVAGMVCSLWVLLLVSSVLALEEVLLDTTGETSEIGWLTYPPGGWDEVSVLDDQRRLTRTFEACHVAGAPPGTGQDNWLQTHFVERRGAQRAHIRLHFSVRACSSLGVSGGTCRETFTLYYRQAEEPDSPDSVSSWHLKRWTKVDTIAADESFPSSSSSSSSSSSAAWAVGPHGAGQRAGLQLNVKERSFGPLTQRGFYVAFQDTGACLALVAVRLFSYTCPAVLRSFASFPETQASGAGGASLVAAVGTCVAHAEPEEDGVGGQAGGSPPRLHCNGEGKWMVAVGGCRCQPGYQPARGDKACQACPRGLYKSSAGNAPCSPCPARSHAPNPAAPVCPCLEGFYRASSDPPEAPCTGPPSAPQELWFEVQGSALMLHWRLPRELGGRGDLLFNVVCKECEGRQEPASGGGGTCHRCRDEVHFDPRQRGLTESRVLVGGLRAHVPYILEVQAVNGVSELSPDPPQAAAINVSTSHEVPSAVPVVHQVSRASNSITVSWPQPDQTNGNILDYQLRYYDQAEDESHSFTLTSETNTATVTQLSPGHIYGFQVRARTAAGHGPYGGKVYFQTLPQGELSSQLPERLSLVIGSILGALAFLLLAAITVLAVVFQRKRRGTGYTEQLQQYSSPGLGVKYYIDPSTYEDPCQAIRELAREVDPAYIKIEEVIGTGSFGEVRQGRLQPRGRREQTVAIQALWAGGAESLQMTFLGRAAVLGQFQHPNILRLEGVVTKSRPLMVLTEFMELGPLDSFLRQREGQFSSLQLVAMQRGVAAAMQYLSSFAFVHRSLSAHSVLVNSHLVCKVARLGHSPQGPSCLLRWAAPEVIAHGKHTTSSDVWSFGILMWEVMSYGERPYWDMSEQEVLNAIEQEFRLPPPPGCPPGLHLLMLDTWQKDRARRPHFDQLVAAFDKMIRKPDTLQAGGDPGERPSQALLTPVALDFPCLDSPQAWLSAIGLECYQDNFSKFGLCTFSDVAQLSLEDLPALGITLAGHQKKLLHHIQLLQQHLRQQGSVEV

DYRK2 = biological target: T3, DYRK2 (UniProt Q92630)
T3 sequence (whole entry): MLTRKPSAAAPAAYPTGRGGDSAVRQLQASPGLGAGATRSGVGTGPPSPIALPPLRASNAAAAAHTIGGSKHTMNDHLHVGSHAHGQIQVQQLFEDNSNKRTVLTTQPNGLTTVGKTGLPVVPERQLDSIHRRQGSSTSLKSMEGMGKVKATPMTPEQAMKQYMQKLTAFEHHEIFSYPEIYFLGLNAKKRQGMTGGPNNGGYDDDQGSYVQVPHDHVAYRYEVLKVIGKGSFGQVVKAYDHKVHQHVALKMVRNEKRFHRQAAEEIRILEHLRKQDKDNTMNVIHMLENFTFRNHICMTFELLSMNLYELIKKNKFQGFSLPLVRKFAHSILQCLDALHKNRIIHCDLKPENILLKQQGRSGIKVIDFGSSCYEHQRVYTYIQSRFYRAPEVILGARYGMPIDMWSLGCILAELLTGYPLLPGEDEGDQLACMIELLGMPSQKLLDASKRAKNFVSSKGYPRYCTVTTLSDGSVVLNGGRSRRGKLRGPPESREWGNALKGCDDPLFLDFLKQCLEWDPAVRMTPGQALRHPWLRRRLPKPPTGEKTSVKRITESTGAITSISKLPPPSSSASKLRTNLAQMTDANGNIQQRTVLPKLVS

ROCK2 = ROCK2 (UniProt O75116)
TRRAP = TRRAP (UniProt Q9Y4A5)
CDKL5 = biological target: T4, CDKL5 (UniProt O76039)
T4 sequence (whole entry): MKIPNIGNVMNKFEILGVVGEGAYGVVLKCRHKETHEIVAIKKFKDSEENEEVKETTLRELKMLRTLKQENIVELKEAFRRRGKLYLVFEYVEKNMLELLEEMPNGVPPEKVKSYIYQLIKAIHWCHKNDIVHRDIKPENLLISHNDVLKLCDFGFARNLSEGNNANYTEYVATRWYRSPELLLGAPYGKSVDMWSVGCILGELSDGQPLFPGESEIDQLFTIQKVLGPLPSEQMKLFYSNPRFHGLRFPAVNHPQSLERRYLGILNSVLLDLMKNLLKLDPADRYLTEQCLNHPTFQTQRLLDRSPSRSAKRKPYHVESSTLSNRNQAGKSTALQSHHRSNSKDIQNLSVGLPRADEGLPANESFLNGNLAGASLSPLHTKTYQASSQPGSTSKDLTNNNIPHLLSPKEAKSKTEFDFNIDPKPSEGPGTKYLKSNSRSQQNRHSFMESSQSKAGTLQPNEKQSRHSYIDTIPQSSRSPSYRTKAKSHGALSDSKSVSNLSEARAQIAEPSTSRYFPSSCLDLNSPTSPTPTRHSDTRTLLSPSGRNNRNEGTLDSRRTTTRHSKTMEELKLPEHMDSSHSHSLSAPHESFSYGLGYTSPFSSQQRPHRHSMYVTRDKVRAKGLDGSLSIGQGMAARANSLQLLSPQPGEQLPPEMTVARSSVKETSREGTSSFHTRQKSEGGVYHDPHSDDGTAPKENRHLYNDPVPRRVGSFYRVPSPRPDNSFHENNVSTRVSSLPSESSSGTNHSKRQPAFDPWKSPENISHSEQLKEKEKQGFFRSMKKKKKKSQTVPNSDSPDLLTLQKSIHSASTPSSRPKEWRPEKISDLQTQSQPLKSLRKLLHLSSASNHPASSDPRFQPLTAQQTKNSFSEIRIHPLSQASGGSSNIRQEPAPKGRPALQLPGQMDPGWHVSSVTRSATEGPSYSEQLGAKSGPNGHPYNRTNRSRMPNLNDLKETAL

TGFBR2 = TGFBR2 (UniProt P37173)
TGFBR2, sequence (P37173 whole entry): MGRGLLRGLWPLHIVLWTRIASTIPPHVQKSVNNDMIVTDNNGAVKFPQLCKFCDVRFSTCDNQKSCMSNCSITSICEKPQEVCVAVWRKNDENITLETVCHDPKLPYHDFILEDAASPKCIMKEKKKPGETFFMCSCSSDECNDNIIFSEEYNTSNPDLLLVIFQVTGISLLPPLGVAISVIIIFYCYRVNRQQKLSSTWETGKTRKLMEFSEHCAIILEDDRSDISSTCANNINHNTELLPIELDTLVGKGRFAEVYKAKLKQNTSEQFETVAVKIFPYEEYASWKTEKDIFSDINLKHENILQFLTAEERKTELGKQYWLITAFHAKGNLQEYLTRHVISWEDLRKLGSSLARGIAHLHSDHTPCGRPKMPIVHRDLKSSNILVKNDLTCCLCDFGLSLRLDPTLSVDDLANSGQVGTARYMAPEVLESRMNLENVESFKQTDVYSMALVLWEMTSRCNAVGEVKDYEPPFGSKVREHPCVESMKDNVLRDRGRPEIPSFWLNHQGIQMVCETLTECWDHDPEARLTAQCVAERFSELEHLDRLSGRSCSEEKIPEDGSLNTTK

ROCK2, sequence (O75116 whole entry, looked up): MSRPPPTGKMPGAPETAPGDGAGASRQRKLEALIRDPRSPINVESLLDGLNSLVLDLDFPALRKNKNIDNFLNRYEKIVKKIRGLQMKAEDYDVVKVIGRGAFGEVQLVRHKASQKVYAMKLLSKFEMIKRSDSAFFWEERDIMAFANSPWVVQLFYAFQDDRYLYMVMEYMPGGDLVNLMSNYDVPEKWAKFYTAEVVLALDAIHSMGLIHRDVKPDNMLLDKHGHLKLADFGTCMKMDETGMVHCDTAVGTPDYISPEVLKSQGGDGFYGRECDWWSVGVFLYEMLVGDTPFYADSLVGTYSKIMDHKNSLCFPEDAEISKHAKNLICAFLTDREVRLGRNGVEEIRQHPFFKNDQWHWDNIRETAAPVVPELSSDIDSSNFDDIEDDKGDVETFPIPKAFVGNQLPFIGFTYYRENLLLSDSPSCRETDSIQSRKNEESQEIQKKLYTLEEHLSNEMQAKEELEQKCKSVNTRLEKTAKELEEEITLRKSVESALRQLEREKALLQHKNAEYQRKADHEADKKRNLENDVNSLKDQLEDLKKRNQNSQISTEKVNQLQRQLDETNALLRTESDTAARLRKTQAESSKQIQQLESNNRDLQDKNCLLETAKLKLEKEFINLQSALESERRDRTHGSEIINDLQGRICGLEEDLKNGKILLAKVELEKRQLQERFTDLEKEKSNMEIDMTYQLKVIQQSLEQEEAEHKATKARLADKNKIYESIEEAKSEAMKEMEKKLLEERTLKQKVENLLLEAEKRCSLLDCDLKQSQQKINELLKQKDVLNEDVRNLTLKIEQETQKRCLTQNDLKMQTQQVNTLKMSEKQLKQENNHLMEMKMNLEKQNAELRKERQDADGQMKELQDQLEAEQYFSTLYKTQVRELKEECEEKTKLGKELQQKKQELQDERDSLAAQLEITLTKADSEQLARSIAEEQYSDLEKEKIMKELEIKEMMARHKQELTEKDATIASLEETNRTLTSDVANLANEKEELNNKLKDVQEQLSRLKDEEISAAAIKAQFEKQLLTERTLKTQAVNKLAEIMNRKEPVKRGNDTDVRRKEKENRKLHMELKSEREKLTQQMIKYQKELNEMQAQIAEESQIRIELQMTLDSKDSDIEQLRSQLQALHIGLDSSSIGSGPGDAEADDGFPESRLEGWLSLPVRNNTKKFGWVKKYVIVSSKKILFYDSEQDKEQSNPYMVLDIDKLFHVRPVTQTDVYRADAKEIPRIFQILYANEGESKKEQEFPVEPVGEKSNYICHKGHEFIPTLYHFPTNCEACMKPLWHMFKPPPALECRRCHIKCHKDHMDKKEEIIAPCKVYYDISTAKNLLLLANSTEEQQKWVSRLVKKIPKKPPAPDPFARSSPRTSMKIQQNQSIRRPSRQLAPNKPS

- pIC50 (UniProt P52564): < 4.52
- pIC50 (EPHB6): < 4.52
- pIC50 (DYRK2): < 4.52
- pIC50 (ROCK2): < 4.52
- pIC50 (TRRAP): < 4.52
- pIC50 (CDKL5): 6.485 ± 0.035
- pIC50 (TGFBR2): < 4.52
SMILES: CCc1cnn2c(NCc3ccc[n+]([O-])c3)cc(N3CCCC[C@H]3CCO)nc12 [dinaciclib]
